In patent US6339064B1, “Benzylglycosylamides as inhibitors of smooth muscle cell proliferation” (American Home Products Corporation, priority 1998, dated 2002):

System: Porcine Smooth Muscle Cell
Assay: Effects of compounds on cell proliferation using 3H thymidine incorporation (porcine smooth muscle cell antiproliferation)
Type: cell-based
Conditions: for IC50: serum/growth factor stimulated cells, 24-36 h incubation; for Porcine Smooth Muscle Cell Antiproliferation, % at 50 μM: control (100%) = maximally stimulated cells
Protocol: Effects of Compounds on Cell Proliferation Using ^3H Thymidine Incorporation
Human and porcine smooth muscle cells were tested in early passage (generally passage 3-7) at sub-confluent conditions. Cultures were grown in 16 mm (24 well) multi-well culture dishes in medium 199 supplemented with 10% fetal bovine serum and 2% antibiotic/antimycotic. At sub-confluence, the cells were placed in a defined serum free medium (AIM-V; Gibco) for 24-48 h prior to initiating the experimental protocol.
Compounds were added to each well at 50 fold dilution (20 μL/well) and the plates were incubated for 24-36 h at 37° C. in 5% CO2. Compounds were initially dissolved in 50% ethanol and serially diluted into media. Compounds were routinely evaluated at concentrations from 1 to 100 μM. As a control, grade II porcine intestinal mucosal herapin (sodium salt) was routinely evaluated in all cell preparations at concentrations from 0.1 to 100 μg/mL.
At the completion of the test procedure, plates were placed on ice, washed three times with ice cold phosphate buffered saline (PBS) and incubated in ice cold 10% trichloroacetic acid (TCA) got 30 min to remove acid soluble proteins. Solution was transferred to scintillation vials containing 0.4 N HCl (500 μL/vial to neutralize NaOH) and each well was rinsed two times with water (500 μL) for a total volume of 2 mL/vial.
Data was obtained, in triplicate, for both control and experimental samples. Control (100%) data was obtained from maximally stimulated cells, as the result of growth factor or serum stimulation. Experimental data was obtained from cells maximally stimulated with growth factor or serum and treated with compound. Data are expressed as an IC50 in Table I below.

Compound	IC50	Porcine Smooth Muscle Cell Antiproliferation, % at 50 μM
CC(=O)OC[C@H]1O[C@@H](NC(=O)c2ccc(Cl)c([N+](=O)[O-])c2)[C@H](OC(C)=O)[C@@H](OC(C)=O)[C@@H]1O[C@H]1O[C@H](COC(C)=O)[C@@H](OC(C)=O)[C@H](OC(C)=O)[C@H]1OC(C)=O [Example 1, N-(Hepta-O-acetyl-1-deoxy-β-D-maltosyl)-4-chloro-3-nitro-benzamide]	21.2 µM	
CC(=O)Nc1cc(C(=O)NC2OC(CO)C(OC3OC4COC(c5ccccc5)OC4C(O)C3O)C(O)C2O)ccc1Cl [Example 4, (R)-3-(Acetylamino)-4-chloro-N-[4-O-[4,6-O-(phenylmethylene)-α-D-glucopyranosyl]-β-D-glucopyranosyl]-benzamide]	3.2 µM	
O=C(NC1OC(CO)C(OC2OC3COC(c4ccccc4)OC3C(O)C2O)C(O)C1O)c1ccc(Cl)c([N+](=O)[O-])c1 [Example 5, (R)-4-chloro-3-nitro-N-[4-O-[4,6-O-(phenylmethylene)-α-D-glucopyranosyl]-β-D-glucopyranosyl]-benzamide]		37% at 50
CC(=O)Nc1cc(C(=O)NC2OC(COC(=O)c3ccccc3)C(OC3OC4COC(c5ccccc5)OC4C(O)C3O)C(O)C2O)ccc1Cl [Example 6, (R)-3-(Acetylamino)-N-[6-O-benzoyl-4-O-[4,6-O-(phenylmethylene)-α-D-glucopyranosyl]-β-D-glucopyranosyl]-4-chloro-benzamide]	0.45 µM	
O=C(NC1OC(COC(=O)c2ccccc2)C(OC2OC3COC(c4ccccc4)OC3C(O)C2O)C(O)C1O)c1ccc(Cl)c([N+](=O)[O-])c1 [Example 7, (R)-4-chloro-N-[(6-O-benzoyl-4′,6′-O-benzylidene)-β-D-maltosyl]-3-nitro-benzamide]	0.55 µM	
CC(=O)O[C@@H]1[C@@H](OC(C)=O)[C@H](NC(=O)c2ccc(Cl)c([N+](=O)[O-])c2)O[C@H](COC(=O)c2ccccc2)[C@H]1O[C@H]1O[C@@H]2COC(c3ccccc3)O[C@H]2[C@H](OC(C)=O)[C@H]1OC(C)=O (stereo partly drawn) [Example 8, 4-Chloro-N-[(2,2′,3,3′-tetra-O-acetyl-6-benzoyl-4′,6′-O benzylidene)-β-D-maltosyl]-3-nitro-benzamide]	0.26 µM	
CC(=O)Nc1cc(C(=O)NC2OC(COC(=O)c3ccccc3)C(OC3OC4COC(c5ccccc5)OC4C(O)C3OC(C)=O)C(O)C2OC(C)=O)ccc1Cl [Example 9, (R)-N-[2-O-Acetyl-4-O-[2-O-acetyl-4,6-O-(phenylmethylene)-α-D-glucopyranosyl]-6-O-benzoyl-β-D-glucopyranosyl]-3-(acetylamino)-4-chlorobenzamide]	1.25 µM	
CC(=O)OC[C@H]1O[C@@H](NC(=O)c2ccc(Cl)cc2)[C@H](OC(C)=O)[C@@H](OC(C)=O)[C@@H]1O[C@H]1O[C@H](COC(C)=O)[C@@H](OC(C)=O)[C@H](OC(C)=O)[C@H]1OC(C)=O [Example 10, N-(Hepta-O-acetyl-β-D-maltosyl)-4-chloro-benzamide]	36.6 µM	
O=C(N[C@@H]1O[C@H](CO)[C@@H](O[C@H]2O[C@@H]3COC(c4ccccc4)O[C@H]3[C@H](O)[C@H]2O)[C@H](O)[C@H]1O)c1ccc(Cl)cc1 (stereo partly drawn) [Example 11, N-(4′,6′-O-Benzylidene-β-D-maltosyl)-4-chloro-benzamide]		15% at 50
O=C(NC1OC(COC(=O)c2ccccc2)C(OC2OC3COC(c4ccccc4)OC3C(O)C2O)C(O)C1O)c1ccc(Cl)cc1 [Example 12, N-(6-O-benzoyl-4′,6′-O-benzylidene-β-D-maltosyl)-4-chloro-benzamide]	49.2 µM	
CC(=O)OC[C@H]1O[C@@H](NC(=O)c2ccc(OCCCC#N)c(Cl)c2)[C@H](OC(C)=O)[C@@H](OC(C)=O)[C@@H]1O[C@H]1O[C@H](COC(C)=O)[C@@H](OC(C)=O)[C@H](OC(C)=O)[C@H]1OC(C)=O [Example 13]	32.8 µM	
CC(=O)OC[C@H]1O[C@H](NC(=O)c2ccc(OCCCC#N)c(Cl)c2)[C@H](OC(C)=O)[C@@H](OC(C)=O)[C@@H]1O[C@H]1O[C@H](COC(C)=O)[C@@H](OC(C)=O)[C@H](OC(C)=O)[C@H]1OC(C)=O [Example 14]	51.3 µM	
